# pKi: −log10 of the molar value.
# Biological target: HPK1 (Homo sapiens (Human), UniProt Q92918)
# Assay: HPK1 Lantha binding assay ("Lanth")
# Conditions: binding assays; Morrison Ki fit
# In short: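 TR-FRET binding competition using 2 nM HPK1, 2 nM Eu-anti-GST antibody and 15 nM Tracer222 at 23 °C. Compound was incubated 1 h with enzyme and antibody, then 1 h after tracer addition, with an 11-point 5-fold dilution series. Ki obtained from a Morrison fit that corrects for tracer concentration and Kd.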
# HPK1, sequence (Q92918 1-346 limits assumed): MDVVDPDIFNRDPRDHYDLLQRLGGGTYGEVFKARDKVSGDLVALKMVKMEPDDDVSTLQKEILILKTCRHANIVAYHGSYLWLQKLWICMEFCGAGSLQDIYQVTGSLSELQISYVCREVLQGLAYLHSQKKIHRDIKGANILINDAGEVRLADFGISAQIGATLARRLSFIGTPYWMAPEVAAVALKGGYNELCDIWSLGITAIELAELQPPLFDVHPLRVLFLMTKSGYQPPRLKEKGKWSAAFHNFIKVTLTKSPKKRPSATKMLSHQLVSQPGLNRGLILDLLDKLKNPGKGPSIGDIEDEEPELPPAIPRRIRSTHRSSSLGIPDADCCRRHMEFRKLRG
row,pKi,SMILES
1,7.95,"CN(C)C(=O)c1c(N)ccc(-c2cnc3c(c2Cl)[C@]2(CC[C@@](C)(CO)CC2)CN3)c1F [Compound 256a, 6-Amino-3-((1r,4r)-4′-chloro-4-(hydroxymethyl)-4-methyl-1′,2′-dihydrospiro[cyclohexane-1,3′-pyrrolo[2,3-b]pyridin]-5′-yl)-2-fluoro-N,N-dimethylbenzamide]"
2,7.79,"CN(C)C(=O)c1c(N)ccc(-c2cnc3c(c2Cl)[C@]2(CC[C@H](n4nccc4N)C2)CN3)c1F (relative stereo) [Compound 134a, 6-Amino-3-((1R,3S)-3-(5-amino-1H-pyrazol-1-yl)-4′-chloro-1′,2′-dihydrospiro[cyclopentane-1,3′-pyrrolo[2,3-b]pyridin]-5′-yl)-2-fluoro-N,N-dimethylbenzamide]"
3,7.80,"CN(Cc1cnn(C)c1)C(=O)c1cccc(-c2cnc3c(c2)C2(CC2)CN3)c1F [Compound 136, 3-(1′,2′-dihydrospiro[cyclopropane-1,3′-pyrrolo[2,3-b]pyridin]-5′-yl)-2-fluoro-N-methyl-N-((1-methyl-1H-pyrazol-4-yl)methyl)benzamide]"
4,7.36,"CN(CCO)C(=O)c1cccc(-c2cnc3c(c2Cl)C2(CC2)CN3)c1F [Compound 45, 3-(4′-Chloro-1′,2′-dihydrospiro[cyclopropane-1,3′-pyrrolo[2,3-b]pyridin]-5′-yl)-2-fluoro-N-(2-hydroxyethyl)-N-methylbenzamide]"
5,7.89,"C[C@@H](c1cnn(C)c1)N(C)C(=O)c1cccc(-c2cnc3c(c2)C2(CC2)CN3)c1F (single isomer, unassigned) [Compound 229b]"
6,7.17,"CN(C)C(=O)c1c(N)ccc(-c2cnc3c(c2)[C@]2(CN3)C[C@H](CC(N)=O)C2)c1F [Compound 102a, 6-Amino-3-((1r,3r)-3-(2-amino-2-oxoethyl)-1′,2′-dihydrospiro[cyclobutane-1,3′-pyrrolo[2,3-b]pyridin]-5′-yl)-2-fluoro-N,N-dimethylbenzamide]"
7,7.72,"COc1c(-c2ccc(N)c(C(=O)N(C)CCO)c2F)cnc2c1C1(CCC1)CN2 [Compound 52, 6-Amino-2-fluoro-N-(2-hydroxyethyl)-3-(4′-methoxy-1′,2′-dihydrospiro[cyclobutane-1,3′-pyrrolo[2,3-b]pyridin]-5′-yl)-N-methylbenzamide]"
8,8.44,"CCC[C@@H]1C[C@]12CNc1ncc(-c3ccc(N)c(C(=O)N(C)C)c3F)c(Cl)c12 (single isomer, unassigned) [Compound 197b]"
9,8.07,"CN(C)C(=O)c1c(N)ccc(-c2cnc3c(c2Cl)[C@]2(CC[C@H](n4ncnc4N)C2)CN3)c1F (single isomer, unassigned) [Compound 118a]"
10,6.55,"CCC1(O)C(=O)Nc2ccc(-c3cnc4c(c3)C3(CC3)CN4)cc21 (stereo not drawn) [Compound 278, 5-(1′,2′-dihydrospiro[cyclopropane-1,3′-pyrrolo[2,3-b]pyridin]-5′-yl)-3-ethyl-3-hydroxyindolin-2-one]"
11,6.54,"c1nc2c(cc1-c1c[nH]c3ccc(C4CC4)cc13)C1(CC1)CN2 [Compound 328, 5′-(5-Cyclopropyl-1H-indol-3-yl)-1′,2′-dihydrospiro[cyclopropane-1,3′-pyrrolo[2,3-b]pyridine]]"
12,6.05,"O=S(=O)(c1ccc(-c2cnc3c(c2Cl)C2(CC=CC2)CN3)cc1)n1cccn1 [Compound 203, 5′-(4-((1H-Pyrazol-1-yl)sulfonyl)phenyl)-4′-chloro-1′,2′-dihydrospiro[cyclopentane-1,3′-pyrrolo[2,3-b]pyridin]-3-ene]"
13,6.48,"CN(CC#N)C(=O)C1(c2cccc(-c3cnc4c(c3Cl)C3(CC=CC3)CN4)c2)CC1 [Compound 270, 1-(3-(4′-Chloro-1′,2′-dihydrospiro[cyclopentane-1,3′-pyrrolo[2,3-b]pyridin]-3-en-5′-yl)phenyl)-N-(cyanomethyl)-N-methylcyclopropane-1-carboxamide]"
14,6.43,"Clc1c(-c2ccc3[nH]ncc3c2)cnc2c1C1(CC=CC1)CN2 [Compound 285, 4-Chloro-5′-(1H-indazol-5-yl)-1′,2′-dihydrospiro[cyclopentane-1,3′-pyrrolo[2,3-b]pyridin]-3-ene]"
15,7.79,"C[C@H]1CNC(=O)N1c1cccc(-c2cnc3c(c2Cl)C2(CC2)CN3)c1 [Compound 69b, (S)-1-(3-(4′-Chloro-1′,2′-dihydrospiro[cyclopropane-1,3′-pyrrolo[2,3-b]pyridin]-5′-yl)phenyl)-5-methylimidazolidin-2-one]"
16,7.83,"Cc1cn([C@H]2CC[C@@]3(CNc4ncc(-c5ccc(N)c(C(=O)N(C)C)c5F)c(Cl)c43)C2)nc1N (relative stereo) [Compound 177a, 6-Amino-3-((1R,3S)-3-(3-amino-4-methyl-1H-pyrazol-1-yl)-4′-chloro-1′,2′-dihydrospiro[cyclopentane-1,3′-pyrrolo[2,3-b]pyridin]-5′-yl)-2-fluoro-N,N-dimethylbenzamide]"
17,7.68,"Cn1cc([C@@H]2CCCCN2C(=O)c2c(N)ccc(-c3cnc4c(c3Cl)C3(CC=CC3)CN4)c2F)cn1 (single isomer, unassigned) [Compound 239b]"
18,7.13,"N#CCc1ccc2[nH]cc(-c3cnc4c(c3)C3(CC3)CN4)c2c1 [Compound 342, 2-(3-(1′,2′-Dihydrospiro[cyclopropane-1,3′-pyrrolo[2,3-b]pyridin]-5′-yl)-1H-indol-5-yl)acetonitrile]"
19,7.60,"CN(C)C(=O)c1c(N)ccc(-c2cnc3c(c2Cl)[C@]2(CC[C@](O)(CC#N)C2)CN3)c1F [Compound 109a, 6-Amino-3-((1R,3R)-4′-chloro-3-(cyanomethyl)-3-hydroxy-1′,2′-dihydrospiro[cyclopentane-1,3′-pyrrolo[2,3-b]pyridin]-5′-yl)-2-fluoro-N,N-dimethylbenzamide]"
20,7.80,"O=C1CCCCN1c1cccc(-c2cnc3c(c2Cl)C2(CC2)CN3)c1 [Compound 60, 1-(3-(4′-Chloro-1′,2′-dihydrospiro[cyclopropane-1,3′-pyrrolo[2,3-b]pyridin]-5′-yl)phenyl)piperidin-2-one]"
21,7.54,"CN(C)C(=O)c1cc(-c2cnc3c(c2)C2(CCCC2)CN3)ccc1N [Compound 1, 2-Amino-5-(1′,2′-dihydrospiro[cyclopentane-1,3′-pyrrolo[2,3-b]pyridin]-5′-yl)-N,N-dimethylbenzamide]"
22,8.36,"CN(Cc1cnn(C)c1)C(=O)c1c(N)ccc(-c2cnc3c(c2Cl)C2(CC2)CN3)c1F [Compound 166, 6-Amino-3-(4′-chloro-1′,2′-dihydrospiro[cyclopropane-1,3′-pyrrolo[2,3-b]pyridin]-5′-yl)-2-fluoro-N-methyl-N-((1-methyl-1H-pyrazol-4-yl)methyl)benzamide]"
23,6.06,"CN(C)C(=O)c1c(N)ccc(-c2cnc3c(c2)C2(CC2)CN3)c1Cl [Compound 14, 6-amino-2-chloro-3-(1′,2′-dihydrospiro[cyclopropane-1,3′-pyrrolo[2,3-b]pyridin]-5′-yl)-N,N-dimethylbenzamide]"
24,7.29,Cc1cc(C#N)n([C@H]2CC[C@@]3(CNc4ncc(-c5ccc(N)c(C(=O)N(C)C)c5F)c(Cl)c43)C2)n1 (relative stereo) [Compound 161a]

# Reference: patent US12208088B2 (Genentech, Inc., priority 2018, dated 2025)
